Laboratory results as given in patent US5602102A, “Dipeptidyl peptidase-I inhibitors and uses thereof” (Board of Regents, The Univ. of TX System, priority 1992, dated 1997).
Like-named read-outs stand apart in the source and are kept apart here. *1 amine or outer side, *2 acyl side, *3 side chain or, on linkers, in order; H or OH if unused. Where a SMILES comes first, the peptide text is derived from it. The star is where a group is joined. pNA = O=[N+]([O-])c1ccc(N*)cc1; AMC = Cc1cc(=O)oc2cc(N*)ccc12; Suc = O=C(CCC(=O)[*:2])[*:1]; βNA = c1ccc2cc(N*)ccc2c1; Cbz = O=C(OCc1ccccc1)*

Legend:
DPPI = DPPI (Homo sapiens, UniProt P53634); test: Substrate specificity of human DPPI: hydrolysis of synthetic peptide substrates; format: biochemical; set-up: Human DPPI is now established to constitute a 200,000 Da glycoprotein with 24,000 Da subunits; from tissue; host or cells: human cadaveric spleen; unit not given here
Text: The specificity of human DPPI was studied using a variety of synthetic peptide substrates. These substrates appear in Table 5.
Substrates with blocked amino-termini, with proline at the P1 position, arginine at the P2, or containing only single amino acids, were not hydrolyzed. […] The amino-terminal sequence of bovine α-casein, Arg--Pro, prohibits the processive cleavage of amino-terminal dipeptides from this protein and therefore should increase the ability to specifically detect endoproteolytic activity, if present.

[1] = target: T1, human dipeptidyl peptidase-I (Homo sapiens, UniProt P53634); test: Effect of protease inhibitors on DPPI activity (purified enzyme); format: biochemical; set-up: Human DPPI is now established to constitute a 200,000 Da glycoprotein with 24,000 Da subunits; from tissue; host or cells: human cadaveric spleen
Experimental: Note. Purified human dipeptidyl peptidaseI (0.4 μg) was preincubated
with each of the inhibitors at the stated concentration for 15 min at
37° C.. Each sample was diluted 3fold with assay buffer containing
substrate and incubated for an additional 20 min.
Target sequence in this assay (P53634 231-394 limits assumed): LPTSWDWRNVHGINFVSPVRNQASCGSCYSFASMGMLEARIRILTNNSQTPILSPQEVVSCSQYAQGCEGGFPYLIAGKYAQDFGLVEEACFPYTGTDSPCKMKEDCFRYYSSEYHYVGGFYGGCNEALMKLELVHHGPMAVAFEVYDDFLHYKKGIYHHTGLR
Target sequence in this assay (P53634 25-134 limits assumed): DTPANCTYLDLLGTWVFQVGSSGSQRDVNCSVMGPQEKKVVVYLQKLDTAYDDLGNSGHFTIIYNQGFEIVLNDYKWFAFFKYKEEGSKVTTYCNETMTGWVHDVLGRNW
Target sequence in this assay (P53634 395-463 limits assumed): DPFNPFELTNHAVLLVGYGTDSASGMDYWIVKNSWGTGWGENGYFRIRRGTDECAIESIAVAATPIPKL

NK cells = test: Depletion of NK cells by dipeptide esters; format: cell-based
[2] = target: T1, human dipeptidyl peptidase-I
[3] = inhibitor 1 mM, preincubated 15 min at 37° C., read-out: Percentage control activity
[4] = inhibitor 1 mM, preincubated 15 min at 37° C.

Chain of DPPI (P53634 231-394 limits assumed): as the sequence (P53634 231-394 limits assumed) above
Chain of DPPI (P53634 25-134 limits assumed): as the sequence (P53634 25-134 limits assumed) above
Chain of DPPI (P53634 395-463 limits assumed): as the sequence (P53634 395-463 limits assumed) above

hydrolysis of substrate peptide by human DPPI (DPPI; substrate concentration 100 μM) | hydrolysis of substrate peptide by human DPPI (DPPI; substrate concentration 500 μM) | Compound | other results
0 | 0 | NCC(=O)Nc1ccc2ccccc2c1 [Gly-βNA] | –
1750 | 2000 | N[C@@H](CO)C(=O)N[C@@H](Cc1ccc(O)cc1)C(=O)Nc1ccc2ccccc2c1 [Ser-Tyr-βNA] (H-Ser-Tyr-βNA) | –
1000 | 1750 | COc1cc(NC(=O)C(Cc2ccc(O)cc2)NC(=O)C(N)CO)cc2ccccc12 (stereo not drawn) [Ser-Tyr-MNA] | –
0 | 0 | C[C@H](NC(=O)CCC(=O)O)C(=O)N[C@@H](C)C(=O)N[C@@H](C)C(=O)Nc1ccc([N+](=O)[O-])cc1 [Suc-Ala-Ala-Ala-pNA] | –
2500 | 4750 | COc1cc(NC(=O)C(CCCN=C(N)N)NC(=O)CN)cc2ccccc12 (stereo not drawn) [Gly-Arg-MNA] | –
0 | 0 | C[C@H](NC(=O)CCC(=O)O)C(=O)N[C@@H](C)C(=O)N1CCC[C@H]1C(=O)N[C@@H](Cc1ccccc1)C(=O)Nc1ccc([N+](=O)[O-])cc1 [Suc-Ala-Ala-Pro-Phe-pNA] (Suc-AAPF-pNA) | –
120 | 380 | NCC(=O)N[C@@H](Cc1ccccc1)C(=O)Nc1ccc([N+](=O)[O-])cc1 [Gly-Phe-pNA] (H-Gly-Phe-pNA) | –
0 | 0 | N[C@@H](Cc1ccccc1)C(=O)Nc1ccc2ccccc2c1 [Phe-βNA] | –
2380 | 4380 | NCC(=O)N[C@@H](Cc1ccccc1)C(=O)Nc1ccc2ccccc2c1 [Gly-Phe-βNA] (H-Gly-Phe-βNA) | –
3500 | 6120 | Cc1cc(=O)oc2cc(NC(=O)[C@H](Cc3ccccc3)NC(=O)CN)ccc12 [Gly-Phe-AMC] (H-Gly-Phe-{AMC}) | –
0 | 0 | Cc1cc(=O)oc2cc(NC(=O)[C@H](CCCN=C(N)N)NC(=O)[C@H](Cc3ccccc3)NC(=O)[C@@H]3CCCN3)ccc12 [Pro-Phe-Arg-AMC] (H-Pro-Phe-Arg-{AMC}) | –
0 | 0 | CC(C)C[C@H](N)C(=O)Nc1ccc2ccccc2c1 [Leu-βNA] | –
0 | 0 | O=C(Nc1ccc2ccccc2c1)[C@@H]1CCCN1 [Pro-βNA] | –
3500 | 5750 | COc1cc(NC(=O)C(Cc2ccccc2)NC(=O)CN)cc2ccccc12 (stereo not drawn) [Gly-Phe-MNA] | –
0 | 0 | COc1cc(NC(=O)[C@H](CCCN=C(N)N)NC(=O)[C@H](CC(C)C)NC(=O)[C@@H](NC(=O)OCc2ccccc2)C(C)C)cc2ccccc12 [CBZ-Val-Leu-Arg-MNA] | –
0 | 0 | COc1cc(NC(=O)[C@@H]2CCCN2C(=O)CN)cc2ccccc12 [Gly-Pro-MNA] | –
0 | 0 | NCC(=O)N1CCC[C@H]1C(=O)Nc1ccc2ccccc2c1 [Gly-Pro-βNA] (H-Gly-Pro-βNA) | –

The next lines start with the compound.

Compound | hydrolysis of substrate peptide by human DPPI (DPPI; substrate concentration 100 μM) | hydrolysis of substrate peptide by human DPPI (DPPI; substrate concentration 500 μM) | other results
O=C(NC(Cc1ccccc1)C(=O)Nc1ccc2ccccc2c1)OCc1ccccc1 (centres unmarked) [CBZ-Phe-βNA] | 0 | 0 | –
c1cnc2c(c1)ccc1cccnc12 [1,10-Phenanthroline] | – | – | remaining activity at 1000 µM [1, 3]: 98%
Cc1ccc(S(=O)(=O)NC(CCCCN)C(=O)CCl)cc1 (centres unmarked) [TLCK, 1-chloro-3-tosylamido-7-amino-2-heptanone] | – | – | Percentage control activity [1, 4]: 5%; effect on DPPI activity (in words) ([1]; screening conditions pH 5.5): potently inhibited
COC([CH2][Hg+])CNC(=O)c1ccccc1OCC(=O)O.[OH-] (centres unmarked) [Mersalyl acid] | – | – | Percentage control activity [1, 4]: 3%; effect on DPPI activity (in words) ([1]; screening conditions pH 5.5): potently inhibited
O=C(O)CI [Iodoacetic acid] | – | – | effect on DPPI activity (in words) ([1]; pH 5.5): potently inhibited; remaining activity at 1000 µM ([1]; read-out: Percentage control activity): 10%
CC(C)C[C@H](NC(=O)[C@@H](N)CC(C)C)C(=O)OCc1ccccc1 [benzyl ester derivative of Leu--Leu--OMe] | – | – | more potent than Leu--Leu--OMe in mediating depletion of NK cells (NK cells): 5 fold
CC(N)C(=O)NC(C)C(=O)NC(C(=O)NC(C)C(=O)Nc1ccc([N+](=O)[O-])cc1)C(C)C (stereo not drawn) [Ala-Ala-Val-Ala-pNA] (H-AAVA-pNA; configuration not given here) | 120 | 120 | –
CC(C)C[C@H](NC(=O)[C@@H](O)[C@H](N)Cc1ccccc1)C(=O)O [Bestatin] | – | – | remaining activity at 500 µg/mL ([1]; inhibitor 500 μg/ml, preincubated 15 min at 37° C., read-out: Percentage control activity): 103%; effect on DPPI activity (in words) ([1]; screening conditions pH 5.5): no effect
C[C@H](N)C(=O)N[C@@H](C)C(=O)Nc1ccc([N+](=O)[O-])cc1 [Ala-Ala-pNA] (H-Ala-Ala-pNA) | 380 | 1000 | –
Cystatin [listing 1 of 2 here] | – | – | Percentage control activity ([1]; inhibitor 50 μg/ml, preincubated 15 min at 37° C.): 32%; effect on DPPI activity (in words) ([1]; screening conditions pH 5.5): potently inhibited
Cystatin [listing 2 of 2 here] | – | – | Percentage control activity of purified human DPPI (% of control activity (at 50 µg/ml)) [2]: 32
Cc1cc(=O)oc2cc(NC(=O)C(CCCCN)NC(=O)OCc3ccccc3)ccc12 (centres unmarked) [CBZ-Lys-AMC] | 0 | 0 | –
N=C(N)NCCCC(NC(=O)OCc1ccccc1)C(=O)Nc1ccc2ccccc2c1 (centres unmarked) [CBZ-Arg-βNA] | 0 | 0 | –
C[C@H](N)C(=O)Nc1ccc2ccccc2c1 [Ala-βNA] | 0 | 0 | –
c1ccc(SSc2ccccn2)nc1 [2,2'-Dithiodipyridine] | – | – | remaining activity at 400 µM ([1]; inhibitor 400 μM, preincubated 15 min at 37° C., read-out: Percentage control activity): 9%; effect on DPPI activity (in words) ([1]; screening conditions pH 5.5): inhibited
NC(N)=NCCC[C@H](N)C(=O)Nc1ccc2ccccc2c1 [Arg-βNA] | 0 | 0 | –
C[C@H](NC(=O)[C@@H](N)CC(=O)O)C(=O)Nc1ccc2ccccc2c1 [Asp-Ala-βNA] (H-Asp-Ala-βNA) | 250 | 1000 | –
CCCC[C@H](NC(=O)[C@@H](N)CCCC)C(=O)OC [norleucyl-norleucine methyl ester] | – | – | more active than Leu--Leu--OMe (NK cells): 2 fold
N=C(N)NCCC[C@H](NC(=O)[C@@H](N)CCCNC(=N)N)C(=O)Nc1ccc2ccccc2c1 [Arg-Arg-βNA] (H-Arg-Arg-βNA) | 0 | 0 | –
NC(N)=NCCC[C@H](NC(=O)OCc1ccccc1)C(=O)N[C@@H](CCCN=C(N)N)C(=O)Nc1ccc2ccccc2c1 [CBZ-Arg-Arg-βNA] (Cbz-Arg-Arg-βNA) | 0 | 0 | –
Cc1cc(=O)oc2cc(NC(=O)[C@H](CCCN=C(N)N)NC(=O)[C@@H]3CCCN3C(=O)CNC(=O)OCc3ccccc3)ccc12 [CBZ-Gly-Pro-Arg-AMC] (Cbz-Gly-Pro-Arg-{AMC}) | 0 | 0 | –
CCN1C(=O)C=CC1=O [N-Ethylmaleimide] | – | – | remaining activity at 1000 µM [1, 3]: 63%; effect on DPPI activity (in words) ([1]; screening conditions pH 5.5): inhibited
